Usually surface tension liquid-gas stands for the work needed to enlarge the surface of a liquid by unit area.

Consider two compounds from the NIST ThermoML archive (doi:10.1021/je700578f).

± gives the expanded uncertainty stated by the source.

For the data set the following is noted: Maximal bubble pressure.

On to `O=C(OCc1ccccc1)c1ccccc1` [benzyl benzoate], for which the surface tension liquid-gas (353.15 K) is 39.6 ± 1.6 mN/m; the surface tension liquid-gas (373.15 K) is given as 37.53 ± 1.5 mN/m; the surface tension liquid-gas (393.15 K) is reported as 35.33 ± 1.4 mN/m; the surface tension liquid-gas (413.15 K) stood at 33.3 ± 1.4 mN/m; the surface tension liquid-gas (433.15 K) worked out at 31.1 ± 1.3 mN/m; the surface tension liquid-gas (453.15 K) was 28.95 ± 1.2 mN/m. In addition, where the note is “473.15 K”, the surface tension liquid-gas was 26.8 ± 1.1 mN/m.

As to `CO` [methanol], the surface tension liquid-gas runs as follows: (303.15 K) 21.75 ± 0.89 mN/m; (313.15 K) 20.9 ± 0.86 mN/m; (323.15 K) 20.04 ± 0.82 mN/m; (333.15 K) 19.18 ± 0.79 mN/m; (343.15 K) 18.32 ± 0.75 mN/m.
